Data published in patent US20240025903A1, “Bicyclic Compounds and Uses Thereof for the Treatment of Diseases” (Athira Pharma, Inc., priority 2020, published 2024).
Read-outs that look alike come from different tables or passages of the source.

Columns and labels:
In vivo pharmacokinetics = test: In vivo pharmacokinetics; design: species or system Sprague-Dawley rats; conditions: both sexes, Sprague-Dawley, rat; for Tmax: plasma; for AUC: dose-corrected plasma AUC; for Cmax: dose-corrected plasma Cmax
Method: Administration of exemplary compounds by selected routes followed by blood collection and compound quantification in plasma was used to determine the pharmacokinetic (PK) profile of the compounds. Compounds were administered to mixed-sex Sprague-Dawley rats of at least 250 grams by dissolving the test compound in DMSO and then diluting the compound into an appropriate vehicle, either saline or saline and poly-ethylene glycol. Dosing was accomplished by either tail vein puncture (IV) or oral gavage (PO), and animals were administered compound according to their weight at 1 mL/kg. At selected intervals following administration (10, 20, 40, 60, 120, and 360 minutes), blood was collected by tail vein blood draw. Whole blood was then processed by centrifugation to produce plasma. Compound content in plasma samples was quantified by LC-MS/MS and compared to an internal standard and standard curves to determine concentration accurately. Plasma concentrations were then averaged for each time point and plotted as a function of time. Area under the curve was calculated by integration of the curve, Cmax was the highest concentration achieved in plasma, and Tmax was determined by the timing of Cmax.

[1] = Non-specific protein binding (rapid equilibrium dialysis); assay type: in vitro ADME, Sprague-Dawley rats; conditions: both sexes, Sprague-Dawley, RED device, 4-hour incubation at 37° C.
Method: Plasma and tissue exposures of exemplary compounds were scaled by their non-specific affinity for protein binding in target tissues or fluids to determine the fraction of compound available for interaction with the target. Non-specific binding was determined in blood plasma and brain homogenate collected from mixed-sex Sprague-Dawley rats.
Known concentrations of test compounds were mixed with plasma or brain homogenate and incubated in the donor chamber of a rapid equilibrium dialysis (RED) device with empty PBS buffer in the receiving chamber. After a 4-hour incubation at 37° C. in an orbital shaking incubator, compound in each chamber was quantified by LC-MS/MS. The unbound fraction (fu,tissue) was calculated using the following formula:
[formula] • where: • fu,tissue is the unbound fraction in the tissue; • fu,homogenate is the ratio of concentration in the buffer chamber to concentration in the sample chamber; and • D is the dilution factor used to produce the sample.

[2] = In vivo tissue distribution; design: species or system Sprague-dawley rats; conditions: rat
Method: The rate of distribution to target tissues is an important feature of therapeutic molecules. Tissue distribution of exemplary compounds was performed in mixed-sex Sprague-dawley rats. Test compounds were delivered via tail vein injection (IV) and tissues were collected at Tmax (10 minutes post administration). Animals were deeply anesthetized with isoflurane and whole blood was collected from the right atrium and processed by centrifugation to produce plasma. Animals were then fully perfused with PBS administered to the left ventricle to prevent blood contamination of tissues.
Tissues were collected and homogenized, and compound content in the target tissue was quantified by LC-MS/MS. Tissue distribution rates were determined by dividing the tissue concentration of compound by the plasma concentration and multiplying by 100.

[3] = test system: scopolamine-induced spatial memory deficit in rats; test: Scopolamine-induced spatial memory deficit in the Morris water maze (compound 1a); assay type: in vivo; conditions: rat, scopolamine 2 mg/kg IP, escape latency over 5 days, post-test p-value
Method: Exemplary compound 1a was evaluated for its ability to reverse chemically-induced spatial memory deficits in rats in the Morris water maze. The water maze consists of a large round tank (diameter 1.5 m) filled with 23-26° C. water to a depth of −30 cm and the water was clouded with white paint. A round platform was fixed such that it rested 2-3 cm below the surface of the water. High-contrast visual cues were placed around the tank to aid spatial orientation of test animals. Testing consisted of placing an animal into the water facing the tank wall at one of three randomly assigned starting locations and allowing the animal to swim and search for the hidden platform for up to 90 seconds. The time taken for the animal to locate the platform was recorded as the escape latency. Animals were tested 5 times per day with a 30 second rest period between trials. Testing was completed for a total of 5 consecutive days.
Animals were divided into groups (N=12 per group) depending on treatment. Control animals received only empty vehicle. Scopolamine groups received 2 mg/kg scopolamine dissolved in sterile saline by intraperitoneal (IP) injection 30 minutes prior to testing. Test compound groups received test compound at various concentrations by oral gavage (PO) dissolved in 78% sterile saline, 20% polyethylene glycol (PEG-400), and 2% DMSO 40 minutes prior to testing. Escape latencies were recorded for each animal for 5 trials each day for 5 consecutive days. Changes in escape latency curves were statistically analyzed by 2-way ANOVA with Bonferoni post-test.

[4] = test system: scopolamine-induced spatial memory deficit in rats; test: Scopolamine-induced spatial memory deficit in the Morris water maze (compounds 2a and 6a); assay type: in vivo; conditions: rat, scopolamine 3 mg/kg IP, escape latency over 8 days, post-test p-value
Method: Exemplary compounds 2a and 6a were evaluated for their ability to reverse chemically-induced spatial memory deficits in rats in the Morris water maze. The water maze consists of a large round tank (diameter 2.1 m) filled with 26-28° C. water to a depth of −30 cm and the water was clouded with white paint. A round platform (13 cm diameter) was fixed such that it rested 2-3 cm below the surface of the water. High-contrast visual cues were placed around the tank to aid spatial orientation of test animals. Testing consisted of placing an animal into the water facing the tank wall at one of three randomly assigned starting locations and allowing the animal to swim and search for the hidden platform for up to 120 seconds. The time taken for the animal to locate the platform was recorded as the escape latency. Animals were tested 5 times per day with a 30 second rest period between trials. Testing was completed for a total of 8 consecutive days.
Animals were divided into groups (N=8 per group) depending on treatment. Control animals received only empty vehicle. Scopolamine groups received 3 mg/kg scopolamine dissolved in sterile saline by intraperitoneal (IP) injection 30 minutes prior to testing. Test compound groups received test compound at various concentrations by oral gavage (PO) dissolved in 48% sterile saline, 50% polyethylene glycol (PEG-400), and 2% DMSO 40 minutes prior to testing. Escape latencies were recorded for each animal for 5 trials each day for 8 consecutive days. Changes in escape latency curves were statistically analyzed by 2-way ANOVA with Bonferoni post-test.

[5] = IV (tail vein), read-out: TMAX IV
[6] = PO (oral gavage), read-out: TMAX PO
[7] = IV (tail vein), read-out: AUC IV
[8] = IV (tail vein), read-out: CMAX IV
[9] = PO (oral gavage), read-out: AUC PO
[10] = PO (oral gavage), read-out: CMAX PO
[11] = rat blood plasma, read-out: Unbound Fraction Plasma
[12] = rat brain homogenate, read-out: Unbound Fraction Brain

Row | Tmax (In vivo pharmacokinetics; [5]) | Tmax (In vivo pharmacokinetics; [6]) | AUC (In vivo pharmacokinetics; [7]) | Cmax (In vivo pharmacokinetics; [8]) | AUC (In vivo pharmacokinetics; [9]) | Cmax (In vivo pharmacokinetics; [10]) | fraction unbound at 4 h [1, 11] | fraction unbound at 4 h [1, 12] | SMILES | Tissue Distribution (% Plasma exposure at 10 min post IV dose) Brain [2] | Tissue Distribution (% Plasma exposure at 10 min post IV dose) Cerebellum [2] | Tissue Distribution (% Plasma exposure at 10 min post IV dose) Cortex [2] | Tissue Distribution (% Plasma exposure at 10 min post IV dose) Hippocampus [2] | Cognitive Improvement ([3]; 0.5 mg/kg PO) | Cognitive Improvement ([3]; 2 mg/kg PO) | Cognitive Improvement ([3]; 8 mg/kg PO) | Tissue Distribution (% Plasma exposure at 10 min post IV dose) Muscle ([2]; muscle) | Tissue Distribution (% Plasma exposure at 10 min post IV dose) Sciatic Nerve ([2]; sciatic nerve) | Cognitive Improvement ([4]; 0.1 mg/kg PO) | Cognitive Improvement ([4]; 1 mg/kg PO) | Cognitive Improvement ([4]; 10 mg/kg PO)
1 | < 30 min | 30 to 60 min | 100 to 999 ng·h/mL | 1000 to 3000 ng/mL | 100 to 999 ng·h/mL | 1 to 100 ng/mL | 0.5 to 0.9 | 0.1 to 0.5 | CCC(C)CN1CC2N(C(=O)c3ccc(C(F)(F)F)cc3)CCC(=O)N2[C@@H](C)C1=O (some centres unmarked) [Compound 1a] | ++ (++ indicates distribution between 5 and 39%) | ++ (++ indicates distribution between 5 and 39%) | ++ (++ indicates distribution between 5 and 39%) | ++ (++ indicates distribution between 5 and 39%) | + (+ indicates post-test p-value between 0.06 and 0.05) | − (− indicates post-test p-value above 0.06) | − (− indicates post-test p-value above 0.06) |  |  |  |  | 
2 | < 30 min | 30 to 60 min | 1000 to 3000 ng·h/mL | 1000 to 3000 ng/mL | 100 to 999 ng·h/mL | 100 to 999 ng/mL | 0.5 to 0.9 | 0.1 to 0.5 | CCC(C)CN1CC2N(C(=O)c3ccc(OC(F)F)cc3)CCC(=O)N2[C@@H](C)C1=O (some centres unmarked) [Compound 2a] | ++ (++ indicates distribution between 5 and 39%) | + (+ indicates distribution between 0.05 and 5%) | ++ (++ indicates distribution between 5 and 39%) | ++ (++ indicates distribution between 5 and 39%) |  |  |  | ++++ (++++ indicates distribution above 70%) | ++++ (++++ indicates distribution above 70%) | − (− indicates post-test p-value above 0.06) | +++ (+++ indicates post-test p-value below 0.01) | − (− indicates post-test p-value above 0.06)
